Reference: patent US6355628B1, “Combination therapy using pentafluorobenzenesulfonamides” (priority 1999, dated 2002)

Key:
[1] = system: MX-1 human mammary tumor xenografts; assay: MX-1 human mammary tumor xenografts in athymic nude mice, tumor growth; format: in vivo
[2] = Weight loss and mortality in MX-1 xenograft study; format: in vivo, athymic nude mice; conditions: efficacious dose, administered alone
Experimental: Its activity is not affected by the multidrug resistance (MDR) phenotype.
Administration of suboptimal doses of 3 mg/kg cisplatin i.v. bolus or 15 mg/kg/hr compound 1 i.v. infusion for 4 hours was compared with the efficacy of coadministration against MX-1 tumors.

[3] = system: various tumor cell lines; assay: Growth and clonogenic potential of tumor cell lines in culture; format: cell-based
[4] = system: β-tubulin; assay: Tubulin polymerization / binding to β-tubulin; format: biochemical; conditions: by covalently binding to β-tubulin

SMILES	efficacy against MX-1 tumor, single agent ([1]; efficacious dose, not stated)	body weight loss accompanying efficacy, single agent [2]	inhibiting the growth of MX-1 xenografts, single agent ([1]; 30 mg/kg/hr infused i.v. for 4 hours)	activity versus multidrug resistance (MDR) phenotype [3]	growth and clonogenic potential of various tumor cell lines in culture [3]	tubulin polymerization [4]
N.N.[Cl][Pt][Cl] [Cisplatin, cis-diaminedichloroplatinum (II), reference compound]	very efficacious	accompanied by body weight loss				
COc1ccc(NS(=O)(=O)c2c(F)c(F)c(F)c(F)c2F)cc1F.[Na] [Compound 1, 2-Fluoro-1-methoxy-4-(pentafluorophenylsulfonamido)benzene, sodium salt]		accompanied by body weight loss	very effective	not affected	inhibits the growth and clonogenic potential	prevents tubulin polymerization
